# Measured values reported in US9872875B2, “Component and method for treating viral disease” (Institut Pasteur of Shanghai, Chinese Academy of Sciences, priority 2012, dated 2018).
# Tests used:
# [1] = system: EV71 clinical isolate (EV71 FY 573); experiment: EV71 infection in ICR newborn mice, serum viral load; assay type: in vivo; settings: 50 mg/kg E02 intraperitoneally; 5 days after infection; infection group average 15.0
# Experimental: EV71 clinical isolate (EV71 FY 573) was used to infect three-day-old newborn ICR mice to test E02's efficacy to inhibit EV71 in vivo. Test mice were divided into three groups: drug group, infection group, and placebo group. When mice were two-day-old, drug group were intraperitoneally injected with 50 μl of E02 at a dose of 50 mg/kg. Infection group and placebo group were intraperitoneally injected with 50 μl of DMEM. When three-day-old, drug group was intraperitoneally injected with a mixture (50 μl) of E02 at a dose of 50 mg/kg and EV71 clinical isolate at a dose of 5×10^7 TCID50. Infection group was injected with a mixture of 5×10^7 TCID50 viruses (25 μl) and 25 μl of DMEM. Placebo group was injected with 50 μl of DMEM.
# 5 days after infection, blood was collected and serum was separated. Viral RNA in serum was extracted (viral RNA extraction kit, QIAGEN QIAamp Viral RNA Mini Kit, cat #52906). Copies of EV71 5′UTR gene and GAPDH gene were detected using one-step real-time quantitative RT-PCR kit (QIAGEN QuantiTect SYBR Green RT-PCR Kit) in ABI 7900HT 384-well plates PCR system.
# [2] = system: EV71 M.A.V. (mouse-adapted strain); experiment: EV71 M.A.V. PFU in RD cells; assay type: cell-based, Enterovirus 71; settings: Enterovirus A, read-out: EC50 to reduce EV71 M.A.V. PFU in RD cells
# Experimental: EV71 M.A.V. was used to infect RD cells cultured in 12-well plates at different E02 concentrations. After cultured for 5 to 7 days, stained and plaque-forming units were calculated. Detailed procedures were the same as the corresponding PFU testing method of Example 1.
# [3] = Toxicity in ICR newborn mice; assay type: in vivo; settings: 50 mg/kg or 20 mg/kg intraperitoneally daily for 4 consecutive days
# Experimental: Three-day-old ICR mice were injected intraperitoneally and daily with 50 μl of E02 at a dose of 50 mg/kg, 20 mg/kg, or 50 μl of DMEM for 4 consecutive days.
# [4] = system: EV71 clinical isolate SH-TS; experiment: EV71 SH-TS replication in RD cells, quantitative RT-PCR; assay type: cell-based, Enterovirus 71; settings: MOI 0.1, 46 h
# Experimental: RD cells were infected with EV71 SH-TS or SH-RS at different E02 concentrations, at the MOI of 0.1. After cultured for 46 h, viral RNA in culture supernatant was extracted. Relative EV71 viral load was determined by quantitative RT-PCR. See Example 1 for specific procedures of quantitative RT-PCR.
# CVA16 = CVA16 infection in ICR newborn mice, viral RNA in tissues and serum; assay type: in vivo; settings: 50 mg/kg of E02 intraperitoneally; 6 days after infection
# Experimental: 5×10^6 TCID50 CVA16 viruses (50 μl) were injected to infect two three-day-old ICR newborn mice. Five days after infection, serum and tissues (brain, bone marrow, heart, intestine, kidney, liver, lung, muscle, spleen, and thymus) were collected. Viral RNA in serum was extracted (viral RNA extraction kit, QIAGEN QIAamp Viral RNA Mini Kit, cat #52906). Tissue samples were placed in RNAstore preservation solution (Tiangen, DP408-02) and stored in −80° C. refrigerator. Total tissue RNA was extracted using tissue RNA extraction kit (RNAprep pure total animal tissue RNA extraction kit). Copies of CVA16 viral genome and GAPDH gene were detected using one-step real-time quantitative RT-PCR kit (QIAGEN QuantiTect SYBR Green RT-PCR Kit) in ABI 7900HT 384-well plate PCR system. Primers are the same as that of EV71 5′UTR primers. See Table 3 and Table 4 for reaction system and PCR program. See FIG. 8 for relative viral load in each tissue and serum. Clearly, CVA16 virus was detected mainly in brain, spinal cord, muscle, and serum.
# Three-day-old ICR newborn mice were infected with CVA16 to test E02's efficacy to inhibit EV71 in vivo. Test mice were divided into three groups: drug group, infection group, and placebo group. […] RNA from tissues and serum were extracted and CVA16 viral RNA determined Treatment procedures were the same as previously described in “1.”
# [5] = system: EV71 clinical isolate (EV71 FY 573); experiment: EV71 TCID50 (CPE, crystal violet) in RD cells; assay type: cell-based, Enterovirus 71
# Experimental: EV71 (clinical isolate EV71 FY 573) in 10-fold serial dilutions was used to infect RD cells at different E02 concentrations. After 3-4 days of incubation, CPE (cytopathic effect) was observed under optical microscope and stained with crystal violet to calculate 50% tissue culture infective dose. Procedures are detailed as follows:
# (1) Cell seeding: 24 h prior to infection, RD cells were seeded in 96-well cell culture plates, 5×10^4 cells per well.
# (2) Infection: • a. Virus pre-incubated with drug: virus stock solution was in 10-fold serial dilution with DMEM and dispensed to 96-well plates at 100 μl per well, and 11 μl of E02 dissolved in DMEM at corresponding concentration was added, and incubated at 37° C. for 1 h; • b. Cells pre-incubated with drug: cell culture medium was removed from 96-well plates, each well was added 100 μl DMEM, then added 11 μl of E02 solution at corresponding concentration, and incubated at 37° C. for 1 h; • c. After 1 h incubation, drug was discarded from cell culture plates, 111 μl of virus pre-incubated with drug was transferred to cell culture plates, and incubated at 37° C. for 1 h; • d. […]
# (3) After cultured for 3-4 days, CPE was observed under optical microscope, and stained with crystal violet, TCID50 was calculated using Reed-Muench method.
# EV71 isolate SEP-4 = experiment: EV71 SEP-4 replication in Vero cells, quantitative RT-PCR; assay type: cell-based, Enterovirus 71; settings: SEP-4, Vero cells, MOI 0.1, 46 h
# Experimental: Vero cells were infected with EV71 SEP-4 virus strain (provided by Institut Pasteur of Cambodia, Cambodia strain) at different E02 concentrations, at the MOI of 0.1. After cultured for 46 h, viral RNA in culture supernatant was extracted. Relative EV71 viral load was determined by quantitative RT-PCR. For specific procedures, refer to Example 1.
compound,measurement,setting,value
"Cc1ccc(C(=O)Nc2ccc(S(=O)(=O)O)c3cc(S(=O)(=O)O)cc(S(=O)(=O)O)c23)cc1NC(=O)c1cccc(NC(=O)Nc2cccc(C(=O)Nc3cc(C(=O)Nc4ccc(S(=O)(=O)O)c5cc(S(=O)(=O)O)cc(S(=O)(=O)O)c45)ccc3C)c2)c1 [E02, Suramin Sodium]","RNA loading ratio between EV71 and GAPDH in serum, average value of drug group",[1],1.8
same,EC50,[2],2 µM
same,toxicity in three-day-old ICR mice,[3],No toxicity was observed
same,concentration reducing EV71 replication by 10-fold,[4],7.14 μM
same,concentration reducing EV71 replication by 100-fold,[4],25.35 µM
same,"CVA16 RNA in brain, bone marrow, muscle and serum",CVA16,significantly decreased
same,inhibition of EV71 clinical isolate infection of RD cells,[5]; 10 μM of E02,completely inhibit
same,EC50,"[5]; Enterovirus A, RD, EV71 FY 573, 3-4 days, read-out: EC50 to reduce EV71 TCID50 in RD cells",4.7 µM
same,concentration reducing EV71 replication by 10-fold,EV71 isolate SEP-4,5.89 μM
same,concentration reducing EV71 replication by 100-fold,EV71 isolate SEP-4,15.49 µM
